The text below walks through data of US20090099167A1, “Organic compounds” (Novartis Institutes for Biomedical Research, priority 2004, published 2009).

In this assay the target is T1, c-Abl kinase (Homo sapiens, UniProt P00519).
T1 construct: The His-tagged kinase domain of c-Abl is cloned and expressed in the baculovirus/Sf9 system; His; made in house; host or cells: Sf9 (baculovirus)
T1 sequence (P00519 242-493 limits assumed): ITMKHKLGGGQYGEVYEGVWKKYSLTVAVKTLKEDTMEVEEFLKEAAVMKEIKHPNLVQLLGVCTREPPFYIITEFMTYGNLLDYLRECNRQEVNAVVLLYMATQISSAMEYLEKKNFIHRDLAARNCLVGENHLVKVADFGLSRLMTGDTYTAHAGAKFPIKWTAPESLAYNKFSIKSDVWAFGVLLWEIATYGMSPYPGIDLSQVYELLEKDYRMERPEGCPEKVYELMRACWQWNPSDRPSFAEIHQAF
The assay is described as follows: c-Abl protein-tyrosine kinase filter binding assay. Type of assay: biochemical. How it is done:
The His-tagged kinase domain of c-Abl is cloned and expressed in the baculovirus/Sf9 system as described by Bhat et al. in J. Biol. Chem. 1997; 272:16170-16175. A protein of 37 kD (c-Abl kinase) is purified by a two-step procedure over a Cobalt metal chelate column followed by an anion exchange column with a yield of 1-2 mg/L of Sf9 cells (Bhat et al., reference cited). The purity of the c-Abl kinase is >90% as judged by SDS-PAGE after Coomassie blue staining. The assay contains (total volume of 30 μL): c-Abl kinase (50 ng), 20 mM Tris.HCl, pH 7.5, 10 mM MgCl2, 10 μM Na3VO4, 1 mM DTT and 0.06 μCi/assay [γ^33 P]-ATP (5 μM ATP) using 30 μg/mL poly-Ala,Glu,Lys,Tyr-6:2:5:1 (Poly-AEKY, Sigma P1152) in the presence of 1% DMSO. Reactions are terminated by adding 10 μL of 250 mM EDTA and 30 μL of the reaction mixture is transferred onto Immobilon-PVDF membrane (Millipore, Bedford, Mass., USA) previously soaked for 5 min with methanol, rinsed with water, then soaked for 5 min with 0.5% H3PO4 and mounted on vacuum manifold with disconnected vacuum source. After spotting all samples, vacuum is connected and each well rinsed with 200 μL 0.5% H3PO4. Membranes are removed and washed on a shaker with 0.5% H3PO4 (4 times) and once with ethanol. Membranes are counted after drying at ambient temperature, mounting in Packard TopCount 96-well frame, and addition of 10 μL/well of Microscint™ (Packard).

Where [1] appears, read: Table 4, read-out: c-abl, activity (IC50 for kinase inhibition).
Setting [2] is: Table 5, read-out: C-abl, IC50 class.

The term IC50 denotes the midpoint of a concentration-inhibition curve.

Where two headings read alike, the source gives them in different places. Where only a bound is given, the exact number is not on record here.

As to `CN1CCN(c2ccc(-c3cnn4c(N)c(-c5cccc(O)c5)cnc34)cc2)CC1` [Example 1, 3-{7-Amino-3-[4-(4-methyl-piperazin-1-yl)-phenyl]-pyrazolo[1,5-a]pyrimidin-6-yl}-phenol], the concentration for half-maximal inhibition (IC50) under setting [1] is less than 10000 nM.

`Nc1c(-c2cccc(O)c2)cnc2c(-c3cccnc3)cnn12` [Example 46, 3-[7-Amino-3-pyridin-3-yl-pyrazolo[1,5-a]pyrimidin-6-yl]-phenol]: the concentration for half-maximal inhibition (IC50) under setting [1] is less than 10000 nM.

`COc1ccccc1-c1cnn2c(N)c(-c3cccc(O)c3)cnc12` [Example 48, 3-[7-Amino-3-(2-methoxy-phenyl)-pyrazolo[1,5-a]pyrimidin-6-yl]-phenol]: the IC50 under setting [1] is less than 10000 nM.

In the case of `COc1cccc(-c2cnn3c(N)c(-c4cccc(O)c4)cnc23)c1` [Example 60, 3-[7-Amino-3-(3-methoxy-phenyl)-pyrazolo[1,5-a]pyrimidin-6-yl]-phenol], under setting [1], the half-inhibitory concentration (IC50) is less than 10000 nM.

With `Cc1nc2c(-c3cccc(N4CCN(C)CC4)c3)cnn2c(N)c1-c1cccc(Cl)c1` [Example 72, 6-(3-Chloro-phenyl)-5-methyl-3-[3-(4-methyl-piperazin-1-yl)-phenyl]-pyrazolo[1,5-a]pyrimidin-7-ylamine], the IC50 under setting [2] is less than 1000 nM.

Take `Cc1nc2c(-c3ccc(N4CCN(C)CC4)cc3)cnn2c(N)c1-c1cccc(Cl)c1` [Example 73, 6-(3-Chloro-phenyl)-5-methyl-3-[4-(4-methyl-piperazin-1-yl)-phenyl]-pyrazolo[1,5-a]pyrimidin-7-ylamine]: the IC50 under setting [2] was less than 1000 nM.

Consider `COc1cc(N2CCN(C)CC2)ccc1-c1cnn2c(N)c(-c3cccc(Cl)c3)c(C)nc12` [Example 75, 6-(3-Chloro-phenyl)-3-[2-methoxy-4-(4-methyl-piperazin-1-yl)-phenyl]-5-methyl-pyrazolo[1,5-a]pyrimidin-7-ylamine], for which the concentration for half-maximal inhibition (IC50) under setting [2] is less than 1000 nM.

Consider `Cc1nc2c(-c3ccc(N4CCN(C)CC4)cc3)cnn2c(N)c1-c1ccc(F)cc1` [Example 79, 6-(4-Fluoro-phenyl)-5-methyl-3-[4-(4-methyl-piperazin-1-yl)-phenyl]-pyrazolo[1,5-a]pyrimidin-7-ylamine], for which the IC50 under setting [2] is less than 1000 nM.

As to `Cc1nc2c(-c3cccc(N4CCN(C)CC4)c3)cnn2c(N)c1-c1ccc(F)cc1` [Example 80, 6-(4-Fluoro-phenyl)-5-methyl-3-[3-(4-methyl-piperazin-1-yl)-phenyl]-pyrazolo[1,5-a]pyrimidin-7-ylamine], under setting [2], the concentration for half-maximal inhibition (IC50) was less than 1000 nM.

In the case of `Cc1nc2c(-c3cccc(N4CCN(C5CCN(C)CC5)CC4)c3)cnn2c(N)c1-c1cccc(Cl)c1` [Example 81, 6-(3-Chloro-phenyl)-5-methyl-3-{3-[4-(1-methyl-piperidin-4-yl)-piperazin-1-yl]-phenyl}-pyrazolo[1,5-a]pyrimidin-7-ylamine], the 50% inhibitory concentration (IC50) under setting [2] was less than 1000 nM.

As for `Cc1nc2c(-c3cccc(N4CCN(C)CC4)c3)cnn2c(N)c1-c1ccc(F)c(Cl)c1` [Example 82, 6-(3-Chloro-4-fluoro-phenyl)-5-methyl-3-[3-(4-methyl-piperazin-1-yl)-phenyl]pyrazolo[1,5-a]pyrimidin-7-ylamine], under setting [2], the IC50 was less than 1000 nM.

With `Cc1nc2c(-c3ccc(N4CCN(C)CC4)cc3)cnn2c(N)c1-c1ccc(F)c(Cl)c1` [Example 83, 6-(3-Chloro-4-fluoro-phenyl)-5-methyl-3-[4-(4-methyl-piperazin-1-yl)-phenyl]-pyrazolo[1,5-a]pyrimidin-7-ylamine], under setting [2], the IC50 is less than 1000 nM.

In the case of `Cc1nc2c(-c3cccc(N4CCN(C)CC4)c3)cnn2c(N)c1-c1cccc(Br)c1` [Example 84, 6-(3-Bromo-phenyl)-5-methyl-3-[3-(4-methyl-piperazin-1-yl)-phenyl]-pyrazolo[1,5-a]pyrimidin-7-ylamine], under setting [2], the IC50 was less than 1000 nM.

In the case of `CN1CCN(c2cccc(-c3cnn4c(N)c(Cc5cccc(Br)c5)cnc34)c2)CC1` [Example 85, 6-(3-Bromo-benzyl)-3-[3-(4-methyl-piperazin-1-yl)-phenyl]pyrazolo[1,5-a]pyrimidin-7-ylamine], the 50% inhibitory concentration (IC50) under setting [2] was less than 1000 nM.

On to `CN1CCN(c2cccc(-c3cnn4c(N)c(-c5cccc(Br)c5)cnc34)c2)CC1` [Example 86, 6-(3-Bromo-phenyl)-3-[3-(4-methyl-piperazin-1-yl)-phenyl]-pyrazolo[1,5-a]pyrimidin-7-ylamine], for which the IC50 under setting [2] is less than 1000 nM.

Consider `Cc1nc2c(-c3cccc(N4CCOCC4)c3)cnn2c(N)c1-c1cccc(Cl)c1` [Example 87, 6-(3-Chloro-phenyl)-5-methyl-3-(3-morpholin-4-yl-phenyl)-pyrazolo[1,5-a]pyrimidin-7-ylamine], for which the IC50 under setting [2] was less than 1000 nM.

With `COc1ccc(-c2cnn3c(N)c(-c4cccc(Cl)c4)c(C)nc23)cc1` [Example 88, 6-(3-Chloro-phenyl)-3-(4-methoxy-phenyl)-5-methyl-pyrazolo[1,5-a]pyrimidin-7-ylamine], the IC50 under setting [2] was less than 1000 nM.

In the case of `Cc1nc2c(-c3cccc(N4C[C@@H](C)O[C@@H](C)C4)c3)cnn2c(N)c1-c1cccc(Cl)c1` [Example 89, 6-(3-Chloro-phenyl)-3-[3-((2R,6S)-2,6-dimethyl-morpholin-4-yl)-phenyl]-5-methyl-pyrazolo[1,5-a]pyrimidin-7-ylamine], the half-maximal inhibitory concentration (IC50) under setting [2] is less than 1000 nM.

On to `Cc1nc2c(-c3cccc(N4CCN(CCO)CC4)c3)cnn2c(N)c1-c1cccc(Cl)c1` [Example 90, 2-(4-{3-[7-Amino-6-(3-chloro-phenyl)-5-methyl-pyrazolo[1,5-a]pyrimidin-3-yl]-phenyl}-piperazin-1-yl)-ethanol], for which the 50% inhibitory concentration (IC50) under setting [2] was less than 1000 nM.

Take `CN1CCN(c2cccc(-c3cnn4c(N)c(Cc5ccccc5)cnc34)c2)CC1` [Example 91, 6-Benzyl-3-[3-(4-methyl-piperazin-1-yl)-phenyl]-pyrazolo[1,5-a]pyrimidin-7-ylamine]: the IC50 under setting [2] is less than 1000 nM.

For `COc1ccc(-c2cnn3c(N)c(-c4cccc(Cl)c4)c(C)nc23)cc1OC` [Example 93, 6-(3-Chloro-phenyl)-3-(3,4-dimethoxy-phenyl)-5-methyl-pyrazolo[1,5-a]pyrimidin-7-ylamine], the IC50 under setting [2] is less than 1000 nM.

Take `COc1ccc(-c2cnn3c(N)c(-c4ccc(F)c(Cl)c4)c(C)nc23)cc1OC` [Example 94, 6-(3-Chloro-4-fluoro-phenyl)-3-(3,4-dimethoxy-phenyl)-5-methyl-pyrazolo[1,5-a]pyrimidin-7-ylamine]: the concentration for half-maximal inhibition (IC50) under setting [2] is more than 10000 nM.

For the compound `COc1ccc(-c2cnn3c(N)c(-c4ccc(F)c(Cl)c4)c(C)nc23)cc1` [Example 95, 6-(3-Chloro-4-fluoro-phenyl)-3-(4-methoxy-phenyl)-5-methyl-pyrazolo[1,5-a]pyrimidin-7-ylamine], under setting [2], the IC50 is less than 1000 nM.

As to `COc1ccc(-c2cnn3c(N)c(-c4ccc(F)cc4)c(C)nc23)cc1` [Example 96, 6-(4-Fluoro-phenyl)-3-(4-methoxy-phenyl)-5-methyl-pyrazolo[1,5-a]pyrimidin-7-ylamine], the half-inhibitory concentration (IC50) under setting [2] was less than 1000 nM.

In the case of `Cc1nc2c(-c3cccc(N4CCN(CCO)CC4)c3)cnn2c(N)c1-c1ccc(F)cc1` [Example 97, 2-(4-{3-[7-Amino-6-(4-fluoro-phenyl)-5-methyl-pyrazolo[1,5-a]pyrimidin-3-yl]-phenyl}-piperazin-1-yl)-ethanol], the IC50 under setting [2] is less than 1000 nM.

As for `Cc1nc2c(-c3cccc(N4CCN(C)CC4)c3)cnn2c(N)c1-c1ccc(F)c(F)c1` [Example 98, 6-(3,4-Difluoro-phenyl)-5-methyl-3-[3-(4-methyl-piperazin-1-yl)-phenyl]-pyrazolo[1,5-a]pyrimidin-7-ylamine], under setting [2], the IC50 was less than 1000 nM.

For `COc1ccc(-c2cnn3c(N)c(-c4ccc(F)c(F)c4)c(C)nc23)cc1OC` [Example 99, 6-(3,4-Difluoro-phenyl)-3-(3,4-dimethoxy-phenyl)-5-methyl-pyrazolo[1,5-a]pyrimidin-7-ylamine], under setting [2], the half-maximal inhibitory concentration (IC50) is less than 1000 nM.

Regarding `Cc1nc2c(-c3cccc(N4CCN(CCO)CC4)c3)cnn2c(N)c1-c1ccc(F)c(Cl)c1` [Example 100, 2-(4-{3-[7-Amino-6-(3-chloro-4-fluoro-phenyl)-5-methyl-pyrazolo[1,5-a]pyrimidin-3-yl]-phenyl}-piperazin-1-yl)-ethanol], the IC50 under setting [2] is less than 1000 nM.

For `Cc1nc2c(-c3cccc(N4CCN(CCO)CC4)c3)cnn2c(N)c1-c1ccc(F)c(F)c1` [Example 101, 2-(4-{3-[7-Amino-6-(3,4-difluoro-phenyl)-5-methyl-pyrazolo[1,5-a]pyrimidin-3-yl]-phenyl}-piperazin-1-yl)-ethanol], the IC50 under setting [2] is less than 1000 nM.

`Cc1nc2c(-c3cccc(N4CCC(N5CCCC5)CC4)c3)cnn2c(N)c1-c1cccc(Cl)c1` [Example 102, 6-(3-Chloro-phenyl)-5-methyl-3-[3-(4-pyrrolidin-1-yl-piperidin-1-yl)-phenyl]-pyrazolo[1,5-a]pyrimidin-7-ylamine]: under setting [2], the IC50 was less than 1000 nM.
